Data taken from ChEMBL document CHEMBL1201862, “PubChem BioAssay data set” (2004).
The source made the active and inactive calls.

Assays:
Bcl-2-like protein 10 = Bcl-2-like protein 10 (Homo sapiens, UniProt Q9HD36); assay: displacers of TR3 peptide from Bcl-B, primary screen, selectivity assay for Bfl-1 inhibitor project, biochemical, fluorescence polarization, FITC-TR3 peptide (AID 748);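 note: fluorescence polarization from a fluorescein-labelled TR3 peptide binding purified Bcl-B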
[1] = target: DNA damage-inducible transcript 3 protein (Mus musculus, UniProt P35639); type: functional, Cricetulus griseus
[2] = target: T1, Long-chain-fatty-acid--AMP ligase FadD28 (Mycobacterium tuberculosis, UniProt P9WQ59); assay: Fluorescence polarization aasay to screen for inhibitors that compete for the binding of FadD28 to a bisubstrate Measured in Biochemical System Using Plate Reader - 2147-01_Inhibitor_Dose_CherryPick_Activity.; type: functional, Mycobacterium tuberculosis H37Rv
T1 sequence (P9WQ59 whole entry): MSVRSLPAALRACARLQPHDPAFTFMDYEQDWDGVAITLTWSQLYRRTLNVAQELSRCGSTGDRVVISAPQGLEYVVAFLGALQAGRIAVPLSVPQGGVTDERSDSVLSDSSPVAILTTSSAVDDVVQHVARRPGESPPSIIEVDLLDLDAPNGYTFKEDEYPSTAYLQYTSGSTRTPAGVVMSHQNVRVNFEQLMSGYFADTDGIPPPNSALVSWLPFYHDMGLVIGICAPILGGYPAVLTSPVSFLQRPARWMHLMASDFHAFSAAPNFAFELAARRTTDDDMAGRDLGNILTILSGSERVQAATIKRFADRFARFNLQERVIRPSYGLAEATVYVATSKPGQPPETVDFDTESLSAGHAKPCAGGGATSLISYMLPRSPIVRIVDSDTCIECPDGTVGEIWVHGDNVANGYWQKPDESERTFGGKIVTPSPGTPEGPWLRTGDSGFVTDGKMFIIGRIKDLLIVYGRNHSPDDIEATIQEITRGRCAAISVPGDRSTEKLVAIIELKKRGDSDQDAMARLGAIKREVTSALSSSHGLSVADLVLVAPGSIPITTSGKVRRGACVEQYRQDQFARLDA

[3] = target: Voltage-dependent T-type calcium channel subunit alpha-1H (Homo sapiens, UniProt O95180); type: functional;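 note: channel activity triggered by adding a high calcium stimulation buffer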
HEK293 [4] = assay: cells; type: functional, cell-based; details: Homo sapiens
[5] = target: Nucleotide-binding oligomerization domain-containing protein 2 (Homo sapiens, UniProt Q9HC29); assay: NOD2 signaling inhibitors, cell-based, luminescence, uHTS, HEK293 (AID 1566); type: functional
HEK293 [6] = assay: NOD2 signaling inhibitors in MDP-stimulated cells, cell-based, uHTS, luminescence (AID 2001); type: functional; details: Homo sapiens
HEK293 [7] = assay: cells; type: functional, cell-based; details: Homo sapiens; remark: listed apart in the source
HEK293 [8] = assay: NOD1 signaling inhibitors, primary screen, cell-based, luminescence, uHTS (AID 1578); type: functional; details: Homo sapiens
HEK293 [9] = assay: cells; type: functional, cell-based; details: Homo sapiens; remark: listed apart in the source
[10] = test system: Streptococcus sp. 'group A'; assay: growth inhibition of control SK(-) GAS strain, dose response, counter-screen for streptokinase expression inhibitor project, luminescence, kanamycin, BacTiterGlo, confirmation (AID 1900); type: functional, organism-based
Streptokinase A = target: T2, Streptokinase A (Streptococcus pyogenes serotype M1, UniProt P10520); assay: S. pyogenes streptokinase expression inhibitors, potency, dose response, plasminogen activation absorbance, OD405 (AID 1914); type: functional, Streptococcus pyogenes M1 GAS;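 note: secreted streptokinase activity via plasminogen activation per viability signal from cell pellet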
T2 sequence (P10520 whole entry): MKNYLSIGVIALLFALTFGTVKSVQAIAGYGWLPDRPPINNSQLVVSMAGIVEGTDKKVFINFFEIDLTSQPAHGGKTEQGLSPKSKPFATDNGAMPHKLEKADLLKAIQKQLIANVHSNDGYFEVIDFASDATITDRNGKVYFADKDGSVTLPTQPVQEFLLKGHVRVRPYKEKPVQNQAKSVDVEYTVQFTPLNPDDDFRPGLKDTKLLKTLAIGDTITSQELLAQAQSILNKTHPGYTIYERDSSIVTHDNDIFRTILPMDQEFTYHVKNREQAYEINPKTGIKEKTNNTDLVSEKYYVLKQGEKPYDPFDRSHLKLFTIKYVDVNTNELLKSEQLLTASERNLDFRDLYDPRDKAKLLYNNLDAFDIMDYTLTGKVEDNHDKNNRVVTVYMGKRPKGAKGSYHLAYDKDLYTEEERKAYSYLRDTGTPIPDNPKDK

[11] = target: Eukaryotic translation initiation factor 4E (Mus musculus, UniProt P63073); assay: eIF4E–eIF4G protein interaction inhibitors, dose response, biochemical, TR-FRET (AID 855); type: functional;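 note: potency for disrupting eIF4E binding to eIF4GI seen as loss of FRET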
Streptococcus = assay: Group A Streptococcus viability loss, dose response, counter-screen for streptokinase expression inhibitor project, luminescence, BacTiterGlo (AID 1915); type: functional, organism-based;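 note: potency for reduction of bacterial viability or growth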
[12] = target: G2/mitotic-specific cyclin-B1 (Homo sapiens, UniProt P14635); assay: G2/M cell cycle arrest in HeLa, late-stage follow-up, mechanism study for Wee1 degradation inhibitor project, FACS, panel member Cyclin B Degradation (AID 2088)
Wee1-like protein kinase = Wee1-like protein kinase (Homo sapiens, UniProt P30291); assay: G2/M cell cycle arrest in HeLa, late-stage follow-up, mechanism study for Wee1 degradation inhibitor project, FACS, panel member Wee1 Degradation (AID 2088)
X-box-binding protein 1 = X-box-binding protein 1 (Homo sapiens, UniProt P17861); type: functional, Cricetulus griseus;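 note: confirmatory dose-response counter-screen serving a CHOP assay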
Protein skinhead-1 = target: T3, Protein skinhead-1 (Caenorhabditis elegans, UniProt P34707); type: functional
T3 sequence (P34707 whole entry): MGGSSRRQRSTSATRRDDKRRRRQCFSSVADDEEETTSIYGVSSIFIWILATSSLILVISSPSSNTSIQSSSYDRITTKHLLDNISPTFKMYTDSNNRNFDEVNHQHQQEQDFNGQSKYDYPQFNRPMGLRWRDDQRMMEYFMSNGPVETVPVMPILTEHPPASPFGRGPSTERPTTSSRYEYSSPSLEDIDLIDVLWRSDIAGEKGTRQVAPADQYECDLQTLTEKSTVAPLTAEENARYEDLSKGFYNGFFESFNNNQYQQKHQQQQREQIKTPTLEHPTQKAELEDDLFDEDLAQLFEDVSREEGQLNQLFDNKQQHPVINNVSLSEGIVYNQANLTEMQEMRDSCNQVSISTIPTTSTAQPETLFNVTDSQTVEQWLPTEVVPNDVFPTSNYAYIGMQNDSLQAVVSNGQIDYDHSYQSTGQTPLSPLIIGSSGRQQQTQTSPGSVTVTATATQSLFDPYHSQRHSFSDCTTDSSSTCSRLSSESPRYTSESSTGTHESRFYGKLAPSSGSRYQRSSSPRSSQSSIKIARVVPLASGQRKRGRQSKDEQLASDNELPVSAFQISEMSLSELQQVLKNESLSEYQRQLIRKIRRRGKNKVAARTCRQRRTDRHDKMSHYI

[13] = target: Intestinal-type alkaline phosphatase (Homo sapiens, UniProt P09923); assay: Dose Response confirmation of uHTS hits from a small molecule inhibitors of human intestinal alkaline phosphatase via a luminescent assay. [Related pubchem assays (depositor defined):AID2544, AID2574]; type: functional
[14] = target: Glyceraldehyde-3-phosphate dehydrogenase (Homo sapiens, UniProt P04406)
[15] = target: T4, Alkaline phosphatase, tissue-nonspecific isozyme (Homo sapiens, UniProt P05186); assay: human TNAP enzyme inhibitors, SAR follow-up, biochemical, luminescent, dose response (AID 1056)
T4 sequence (P05186 whole entry): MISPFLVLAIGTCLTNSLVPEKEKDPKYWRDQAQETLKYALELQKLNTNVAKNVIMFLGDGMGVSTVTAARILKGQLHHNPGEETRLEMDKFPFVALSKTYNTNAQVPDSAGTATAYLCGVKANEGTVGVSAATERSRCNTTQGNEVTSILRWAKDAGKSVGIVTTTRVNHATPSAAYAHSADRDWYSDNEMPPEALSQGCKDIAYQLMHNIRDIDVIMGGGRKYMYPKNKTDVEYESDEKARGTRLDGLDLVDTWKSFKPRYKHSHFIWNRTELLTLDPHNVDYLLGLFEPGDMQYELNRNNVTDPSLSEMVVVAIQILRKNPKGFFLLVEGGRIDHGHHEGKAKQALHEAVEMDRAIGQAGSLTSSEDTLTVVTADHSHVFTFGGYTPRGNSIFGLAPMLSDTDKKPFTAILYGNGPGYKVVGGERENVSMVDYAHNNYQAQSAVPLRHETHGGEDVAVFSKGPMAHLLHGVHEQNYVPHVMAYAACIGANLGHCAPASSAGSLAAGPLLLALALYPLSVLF

Ion channel NompC = Ion channel NompC (Danio rerio, UniProt Q7T1G6); assay: Dose response cell-based high-throughput screening assay for agonists of the transient receptor potential channel N1 (TRPN1). [Related pubchem assays (depositor defined):AID1424, AID1448]; type: functional
Mucolipin-3 = Mucolipin-3 (Homo sapiens, UniProt Q8TDD5); assay: Fluorescence counterscreen assay for […] agonists: dose response cell-based high-throughput screening assay to identify agonists of the transient receptor potential channel ML3 (TRPML3). [Related pubchem assays: 1424, 1448 ]; type: functional
[16] = Luminescence Cell-Based Dose Response HTS to Identify Activators of Luciferase Translation or Activity in H4 […] Cells. [Related pubchem assays: 1829 (Project Summary), 1814 (Primary HTS)]; type: functional
[17] = Luminescence Cell-Based Dose Confirmation HTS to Identify Activators of 5'UTR Stem-Loop Driven Alpha-Synuclein mRNA Translation in H4 Neuroglioblastoma Cells. [Related pubchem assays: 1829 (Project Summary), 1814 (Primary HTS)]; type: functional
[18] = target: G-protein coupled receptor 55 (Homo sapiens, UniProt Q9Y2T6); assay: GPR55 agonists via beta-arrestin recruitment, primary screen, imaging, U2OS cells, beta-arrestin-GFP redistribution (AID 1961); type: functional
H4 = assay: Luminescence Cell-Based Dose Response HTS to Identify Activators of 5'UTR Stem-Loop Driven Prion Protein mRNA Translation in H4 Neuroglioblastoma Cells. [Related pubchem assays: 1829 (Project Summary), 1814 (Primary HTS)]; type: functional; details: Homo sapiens
[19] = target: DNA dC->dU-editing enzyme APOBEC-3G (Homo sapiens, UniProt Q9HC16); assay: Dose Response confirmation of small molecule APOBEC3G DNA Deaminase Inhibitors via a fluorescence-based single-stranded DNA deaminase assay. [Related pubchem assays (depositor defined):AID493012, AID493028]; type: functional
[20] = target: Alkaline phosphatase, placental type (Homo sapiens, UniProt P05187); assay: PLAP enzyme inhibitors, confirmation, biochemical, luminescence (AID 1512); type: functional

Sequence of Voltage-dependent T-type calcium channel subunit alpha-1H (O95180 whole entry): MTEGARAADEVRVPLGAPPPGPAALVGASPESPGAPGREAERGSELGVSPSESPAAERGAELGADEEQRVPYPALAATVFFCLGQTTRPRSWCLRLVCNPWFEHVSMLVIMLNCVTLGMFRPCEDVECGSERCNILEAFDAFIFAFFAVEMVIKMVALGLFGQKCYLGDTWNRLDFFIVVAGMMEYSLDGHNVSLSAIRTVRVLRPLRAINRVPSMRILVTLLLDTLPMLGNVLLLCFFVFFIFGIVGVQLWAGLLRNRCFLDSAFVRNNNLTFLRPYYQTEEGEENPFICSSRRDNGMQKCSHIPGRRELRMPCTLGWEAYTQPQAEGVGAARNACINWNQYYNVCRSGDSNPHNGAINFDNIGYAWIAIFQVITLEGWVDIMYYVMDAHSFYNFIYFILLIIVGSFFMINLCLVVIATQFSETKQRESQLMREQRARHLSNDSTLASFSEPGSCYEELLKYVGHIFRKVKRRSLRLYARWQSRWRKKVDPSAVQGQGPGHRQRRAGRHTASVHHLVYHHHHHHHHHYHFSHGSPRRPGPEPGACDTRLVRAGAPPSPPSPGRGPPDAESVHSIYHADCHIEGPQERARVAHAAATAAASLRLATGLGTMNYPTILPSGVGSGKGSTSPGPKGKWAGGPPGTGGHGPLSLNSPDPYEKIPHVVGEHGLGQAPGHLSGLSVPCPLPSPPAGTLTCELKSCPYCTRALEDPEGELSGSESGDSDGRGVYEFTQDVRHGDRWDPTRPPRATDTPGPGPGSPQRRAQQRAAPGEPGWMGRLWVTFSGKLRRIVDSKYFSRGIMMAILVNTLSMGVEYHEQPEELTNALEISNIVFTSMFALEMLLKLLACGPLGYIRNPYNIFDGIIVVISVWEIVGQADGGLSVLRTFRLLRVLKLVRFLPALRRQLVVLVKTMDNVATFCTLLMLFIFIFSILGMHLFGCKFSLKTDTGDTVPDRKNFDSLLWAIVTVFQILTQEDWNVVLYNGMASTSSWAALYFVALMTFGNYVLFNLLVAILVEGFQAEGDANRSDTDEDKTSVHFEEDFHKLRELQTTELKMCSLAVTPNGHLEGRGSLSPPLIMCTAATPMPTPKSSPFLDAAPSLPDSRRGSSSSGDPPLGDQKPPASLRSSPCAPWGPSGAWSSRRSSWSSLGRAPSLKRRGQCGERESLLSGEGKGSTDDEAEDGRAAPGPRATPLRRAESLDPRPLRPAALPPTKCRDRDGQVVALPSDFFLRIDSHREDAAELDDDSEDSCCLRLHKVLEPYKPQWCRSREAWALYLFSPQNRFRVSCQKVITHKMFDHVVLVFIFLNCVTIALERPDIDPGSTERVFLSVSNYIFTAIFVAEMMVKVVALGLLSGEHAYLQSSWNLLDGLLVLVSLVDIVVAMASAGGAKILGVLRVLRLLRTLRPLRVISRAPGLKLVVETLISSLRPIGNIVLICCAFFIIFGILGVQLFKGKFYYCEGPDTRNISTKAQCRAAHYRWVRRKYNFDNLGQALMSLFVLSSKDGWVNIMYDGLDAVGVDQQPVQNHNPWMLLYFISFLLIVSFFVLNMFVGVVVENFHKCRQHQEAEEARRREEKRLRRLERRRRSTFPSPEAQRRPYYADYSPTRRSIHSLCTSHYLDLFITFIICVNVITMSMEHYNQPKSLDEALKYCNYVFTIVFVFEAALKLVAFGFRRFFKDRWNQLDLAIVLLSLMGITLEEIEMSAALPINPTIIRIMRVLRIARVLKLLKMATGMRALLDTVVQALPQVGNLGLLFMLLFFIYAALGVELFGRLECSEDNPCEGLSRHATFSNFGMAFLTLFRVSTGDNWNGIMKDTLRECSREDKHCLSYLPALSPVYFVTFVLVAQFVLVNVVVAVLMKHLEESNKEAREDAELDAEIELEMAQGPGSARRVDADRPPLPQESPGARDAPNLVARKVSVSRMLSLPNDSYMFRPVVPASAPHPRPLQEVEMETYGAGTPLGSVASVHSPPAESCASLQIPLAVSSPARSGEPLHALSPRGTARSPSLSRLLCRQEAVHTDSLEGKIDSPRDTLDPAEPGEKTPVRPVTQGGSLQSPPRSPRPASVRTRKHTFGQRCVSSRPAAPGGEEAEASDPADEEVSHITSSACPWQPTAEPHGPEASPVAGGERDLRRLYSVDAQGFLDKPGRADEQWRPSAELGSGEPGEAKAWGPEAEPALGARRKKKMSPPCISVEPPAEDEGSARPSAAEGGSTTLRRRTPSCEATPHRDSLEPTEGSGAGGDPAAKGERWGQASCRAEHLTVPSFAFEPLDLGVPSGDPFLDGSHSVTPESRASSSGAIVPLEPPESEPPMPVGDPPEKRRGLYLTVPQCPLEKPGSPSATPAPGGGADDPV
Sequence of Bcl-2-like protein 10 (Q9HD36 whole entry): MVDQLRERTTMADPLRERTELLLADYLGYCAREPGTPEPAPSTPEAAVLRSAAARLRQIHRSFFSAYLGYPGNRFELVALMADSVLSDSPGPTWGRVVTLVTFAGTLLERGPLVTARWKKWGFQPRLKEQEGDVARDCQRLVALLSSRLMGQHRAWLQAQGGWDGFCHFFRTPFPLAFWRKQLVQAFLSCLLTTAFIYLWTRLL
Sequence of X-box-binding protein 1 (P17861 whole entry): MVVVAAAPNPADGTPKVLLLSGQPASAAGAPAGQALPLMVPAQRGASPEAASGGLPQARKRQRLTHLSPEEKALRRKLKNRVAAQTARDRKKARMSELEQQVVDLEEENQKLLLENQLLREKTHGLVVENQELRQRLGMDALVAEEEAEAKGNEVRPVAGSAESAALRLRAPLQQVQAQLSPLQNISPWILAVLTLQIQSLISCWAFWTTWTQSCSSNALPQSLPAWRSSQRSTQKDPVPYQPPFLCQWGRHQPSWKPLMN
Sequence of Wee1-like protein kinase (P30291 whole entry): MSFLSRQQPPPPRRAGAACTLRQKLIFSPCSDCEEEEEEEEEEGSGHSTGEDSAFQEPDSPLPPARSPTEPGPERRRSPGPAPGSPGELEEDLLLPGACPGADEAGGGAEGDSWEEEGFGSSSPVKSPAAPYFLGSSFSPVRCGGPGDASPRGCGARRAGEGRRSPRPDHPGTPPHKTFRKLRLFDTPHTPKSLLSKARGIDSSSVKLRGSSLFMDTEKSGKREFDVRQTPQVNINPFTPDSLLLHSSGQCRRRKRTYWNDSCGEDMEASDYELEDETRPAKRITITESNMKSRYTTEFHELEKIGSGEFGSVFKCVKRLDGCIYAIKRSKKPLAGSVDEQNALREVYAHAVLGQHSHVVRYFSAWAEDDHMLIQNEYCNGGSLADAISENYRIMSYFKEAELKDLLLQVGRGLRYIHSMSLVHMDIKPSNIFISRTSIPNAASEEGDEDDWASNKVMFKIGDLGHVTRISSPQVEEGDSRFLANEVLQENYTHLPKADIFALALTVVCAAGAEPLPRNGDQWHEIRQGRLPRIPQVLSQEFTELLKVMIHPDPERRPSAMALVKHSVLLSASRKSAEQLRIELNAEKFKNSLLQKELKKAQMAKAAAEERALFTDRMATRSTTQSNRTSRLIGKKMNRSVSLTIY
Sequence of Nucleotide-binding oligomerization domain-containing protein 2 (Q9HC29 whole entry, the tested form may be a part): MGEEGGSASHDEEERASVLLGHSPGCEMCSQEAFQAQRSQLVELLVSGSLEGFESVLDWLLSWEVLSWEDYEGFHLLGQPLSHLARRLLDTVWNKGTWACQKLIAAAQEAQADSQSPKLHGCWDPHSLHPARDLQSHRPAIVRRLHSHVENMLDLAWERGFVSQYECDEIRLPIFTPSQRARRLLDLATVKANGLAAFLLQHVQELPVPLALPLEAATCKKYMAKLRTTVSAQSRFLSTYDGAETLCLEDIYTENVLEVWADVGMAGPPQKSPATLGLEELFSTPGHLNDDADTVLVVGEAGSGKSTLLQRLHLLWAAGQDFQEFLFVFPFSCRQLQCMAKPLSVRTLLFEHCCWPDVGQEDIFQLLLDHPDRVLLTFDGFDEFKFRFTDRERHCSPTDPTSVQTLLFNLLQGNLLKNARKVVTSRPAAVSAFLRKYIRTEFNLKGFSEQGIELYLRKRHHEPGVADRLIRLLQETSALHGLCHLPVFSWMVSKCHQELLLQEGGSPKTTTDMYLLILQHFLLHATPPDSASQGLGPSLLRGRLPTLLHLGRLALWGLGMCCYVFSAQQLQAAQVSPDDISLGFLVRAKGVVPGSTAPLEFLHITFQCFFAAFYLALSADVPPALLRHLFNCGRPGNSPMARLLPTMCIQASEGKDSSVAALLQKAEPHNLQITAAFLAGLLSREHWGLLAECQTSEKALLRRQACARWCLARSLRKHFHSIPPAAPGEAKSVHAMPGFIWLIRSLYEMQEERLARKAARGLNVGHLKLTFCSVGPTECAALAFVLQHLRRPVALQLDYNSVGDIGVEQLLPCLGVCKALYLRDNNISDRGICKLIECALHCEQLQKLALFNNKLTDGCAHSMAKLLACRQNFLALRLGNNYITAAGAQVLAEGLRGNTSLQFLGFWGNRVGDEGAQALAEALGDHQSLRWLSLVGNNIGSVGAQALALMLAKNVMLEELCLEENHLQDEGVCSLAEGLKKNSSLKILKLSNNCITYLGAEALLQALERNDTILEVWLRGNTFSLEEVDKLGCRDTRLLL
Sequence of DNA damage-inducible transcript 3 protein (P35639 whole entry): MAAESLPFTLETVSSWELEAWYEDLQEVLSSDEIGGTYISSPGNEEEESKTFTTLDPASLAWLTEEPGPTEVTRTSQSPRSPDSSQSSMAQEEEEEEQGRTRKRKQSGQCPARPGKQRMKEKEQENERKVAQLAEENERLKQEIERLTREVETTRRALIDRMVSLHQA
Sequence of Glyceraldehyde-3-phosphate dehydrogenase (P04406 whole entry): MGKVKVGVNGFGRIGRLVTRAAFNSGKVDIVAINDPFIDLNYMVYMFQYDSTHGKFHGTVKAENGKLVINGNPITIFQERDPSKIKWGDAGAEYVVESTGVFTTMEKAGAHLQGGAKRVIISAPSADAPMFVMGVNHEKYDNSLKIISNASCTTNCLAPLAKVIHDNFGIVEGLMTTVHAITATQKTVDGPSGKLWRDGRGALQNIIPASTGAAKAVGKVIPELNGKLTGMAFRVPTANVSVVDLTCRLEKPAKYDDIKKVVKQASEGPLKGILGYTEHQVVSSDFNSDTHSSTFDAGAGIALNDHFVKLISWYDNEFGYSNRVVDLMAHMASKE

Cn1c(=O)n(C)c2cc(S(=O)(=O)Nc3ccccc3O)ccc21
IC50 (Bcl-2-like protein 10): > 100 µM (inactive)

COc1ccc(Cc2nc3ccccc3n2CC(=O)N/N=C/c2ccc(C)cc2O)cc1OC
Absolute IC50 (CHOP) [1]: 10 µM

CC(C)(C)c1csc(NC(=O)Cn2c(=O)oc3ccccc32)n1
AC50 [2]: > 100 µM (inactive) | EC50 [3]: 1.5 µM (active)

C[C@H](NC(=O)c1ccccc1Cl)C(=O)OC(C(=O)Nc1cc(C(F)(F)F)ccc1Cl)c1ccccc1 (some centres not stated)
EC50 [3]: 4.07 µM (active)

O=C(CN1C(=O)c2cccnc2Oc2ccc(Cl)cc21)NCCCc1ccccc1
IC50 (HEK293 [4]): > 20 µM (inactive) | EC50 [5]: > 20 µM (inactive) | IC50 (HEK293 [6]): > 20 µM (inactive) | IC50 (HEK293 [7]): > 20 µM (inactive) | EC50 (HEK293 [8]): > 20 µM (inactive) | IC50 (HEK293 [9]): > 20 µM (inactive)

C[N+](C)(C)c1ccc(/C=N/Nc2nc(Cl)c(C#N)c(Cl)c2Cl)cc1
EC50 [10]: > 150 µM (not active) | EC50 (Streptokinase A): > 150 µM (not active) | IC50 [11]: > 64 µM (inactive) | EC50 (Streptococcus): > 150 µM (not active)

Cn1c(=O)cc(OCCCC(=O)Nc2cccc(Cl)c2)c2ccccc21
EC50 [12]: > 49.7 µM (inactive) | EC50 (Wee1-like protein kinase): > 49.7 µM (inactive)

O=[N+]([O-])c1ccc(O)c(/C=N/Nc2ccccc2Cl)c1
Absolute IC50 (XBP1) (X-box-binding protein 1): 10 µM | Absolute IC50 (CHOP) [1]: 10 µM

CN(CC(=O)Nc1c(Cl)cccc1Cl)C(=O)CCCN1C(=O)c2ccccc2C1=O
IC50 (Bcl-2-like protein 10): > 100 µM (inactive)

O=C(/C=C\c1ccco1)Nc1nc(-c2ccc3ccccc3c2)cs1
EC50 [10]: 7.52 µM (active) | IC50 (HEK293 [4]): 7.24 µM (active) | EC50 (Streptokinase A): > 150 µM (not active) | EC50 [5]: > 20 µM (inactive) | EC50 (Streptococcus): 73.7 µM (active) | IC50 (HEK293 [6]): 3.88 µM (inactive) | IC50 (Protein skinhead-1): > 100 µM (inactive) | IC50 (HEK293 [7]): > 20 µM (inactive) | EC50 (HEK293 [8]): > 20 µM (inactive) | IC50 (HEK293 [9]): 3.56 µM (active)

N#Cc1c(-c2ccccc2)nc(N2CCOCC2)[nH]c1=O
IC50 [13]: > 100 µM (inactive)

c1ccc(-c2cc3c(ccc4nonc43)[nH]2)cc1
EC50 [12]: > 49.7 µM (inactive) | EC50 (Wee1-like protein kinase): > 49.7 µM (inactive)

COc1cccc(S(=O)(=O)Nc2cccnc2)c1
IC50 [14]: > 100 µM (not active) | IC50 [15]: > 100 µM (inactive)

COc1ccccc1N(CC(=O)NC(C)(C)C)S(=O)(=O)c1cccs1
EC50 (Ion channel NompC): > 29.9 µM (inactive) | EC50 (Mucolipin-3): > 29.9 µM (not active)

CC1=NN(c2ccc(C(=O)O)cc2)C(=O)/C1=C/c1ccc(-c2ccccc2F)o1
EC50 [16]: > 120 µM (not active) | EC50 [17]: > 120 µM (not active) | EC50 [18]: 21.3 µM (inactive) | EC50 (H4): > 120 µM (not active)

CCCCCCSc1nsc(NC(=O)CCC)n1
Absolute IC50 (XBP1) (X-box-binding protein 1): 10 µM

Cc1ccc(-n2c(N)c(C(N)=O)sc2=S)cc1
IC50 [11]: > 64 µM (inactive) | IC50 [19]: 55.1 µM (active)

COc1ccc2[nH]c(SCC(=O)c3ccc(O)c(O)c3)nc2c1
IC50 [14]: > 100 µM (not active) | IC50 [20]: 6.17 µM (active) | IC50 [15]: 19.3 µM (active)
